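All cell lines were grown in 96-well plates and treated with compound for 48 hours. Abbreviation: GI50, concentration required for 50% inhibition of growth. TGI denotes the concentration required for complete inhibition of growth.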
What was measured:
Assay in all cases: DTP human tumour cell line panel, 48 h
HOP-92 NSCLC = tested on: HOP-92 NSCLC
SK-OV-3 ovarian = tested on: SK-OV-3 ovarian
NCI-H460 lung = tested on: NCI-H460 lung
UACC-257 melanoma = tested on: UACC-257 melanoma
A549 NSCLC = tested on: A549 NSCLC
UO-31 renal = tested on: UO-31 renal
NCI/ADR-RES ovarian = tested on: NCI/ADR-RES ovarian
786-0 renal = tested on: 786-0 renal
MALME-3M melanoma = tested on: MALME-3M melanoma
EKVX NSCLC = tested on: EKVX NSCLC

SMILES | GI50 (HOP-92 NSCLC) [µM] | TGI (HOP-92 NSCLC) [µM] | GI50 (SK-OV-3 ovarian) [µM] | TGI (SK-OV-3 ovarian) [µM] | GI50 (NCI-H460 lung) [µM] | TGI (NCI-H460 lung) [µM] | GI50 (UACC-257 melanoma) [µM] | TGI (UACC-257 melanoma) [µM] | GI50 (A549 NSCLC) [µM] | TGI (A549 NSCLC) [µM] | GI50 (UO-31 renal) [µM] | TGI (UO-31 renal) [µM] | GI50 (NCI/ADR-RES ovarian) [µM] | TGI (NCI/ADR-RES ovarian) [µM] | GI50 (786-0 renal) [µM] | TGI (786-0 renal) [µM] | GI50 (MALME-3M melanoma) [µM] | TGI (MALME-3M melanoma) [µM] | GI50 (EKVX NSCLC) [µM] | TGI (EKVX NSCLC) [µM]
O=C(NCCCc1cn[nH]c1)c1ccc(-c2ccncc2)c(C#Cc2ccc(F)cc2)c1 | 12.7 | 87 | 8.96 | > 100 | 0.145 | 41.9 | 17.6 | > 100 | 0.481 | > 100 | 3.4 | > 67.2 | < 0.0116 | > 100 | 3.66 | > 64.1 | 10.2 | 54.2 | 8.39 | > 100
COC(=O)Nc1nc2ccccc2[nH]1 |  | > 100 |  | > 31.5 |  | > 100 |  | > 100 |  | > 100 |  | > 100 |  | 21 |  | > 100 |  | > 100 |  | > 100
O=C(NNc1ccc(Cl)cc1)C1CCC(CNS(=O)(=O)c2ccccc2Cl)CC1 (stereo not drawn) | 17.3 | > 100 |  |  | 14.3 | > 100 | 17.1 | 59.7 | 8.99 | > 100 | 56.2 | > 100 | 15.5 | 50.7 | 13.7 | 34 |  |  | 11 | 56.2
N#CC1=C(N)Oc2c(ccc3ccccc23)C1c1cc(=O)oc2ccc(Cl)cc12 (stereo not drawn) | 0.556 | 42 | 0.965 | > 100 | 0.466 | 14 | 14.4 | 91.7 | 1.38 | > 100 | 1.82 | > 100 | 0.522 | 36.8 | 0.646 | > 100 | 18.1 | 67.8 | 3.79 | > 100
CNCCCNc1nc2ccccc2c2c(=O)c3cc(OC)ccc3sc12 | 1.35 | 5.67 |  |  | 1.67 | 3.13 | 1.99 | 4.15 | 1.84 | 3.82 | 1.42 | 2.75 | 1.82 | 3.64 | 1.66 | 3.17 | 1.67 | 3.15 | 1.72 | 3.7
CC(=O)OC12C=C(C)C(C(C)C1)C1C(=O)N(CCN3CCCCC3)C(=O)C12 (stereo not drawn) | > 50 | > 50 | > 50 | > 50 |  |  | > 50 | > 50 | > 50 | > 50 | > 50 | > 50 | > 50 | > 50 | > 50 | > 50 | > 50 | > 50 | > 50 | > 50
COc1cc(OC)cc(C2C3=C(COC3=O)Nc3cc(OC)ccc32)c1 (stereo not drawn) |  |  | < 0.01 | < 0.01 | < 0.01 | 0.495 | > 36.9 | > 100 | < 0.01 | 27.7 | 0.0387 | > 67.7 | < 0.01 |  | 0.0203 | 30.9 | 13.5 | > 100 | < 0.01 | > 100
Cc1cc(C)c(C#N)c(Sc2nc(C)c([N+](=O)[O-])c(C)c2C#N)n1 | 2.68 | 7.88 | 3.76 | 27.4 | 3.63 | 16.2 |  |  |  |  | 1.81 | 4.01 | 4.01 | 33.1 | 5.04 | 17.9 | 2.27 | 5.1 |  | 
NC1c2ccccc2Nc2ccccc21 |  | 16.1 |  | 23.6 |  | 11.1 |  | 17.4 |  | 19.8 |  | 13.4 |  |  |  | 15.9 |  | 19 |  | 20.7
CSc1nc2nc3c(nc2c(=O)n1C)C(=O)c1ccccc1C3=O | 0.476 | 2.59 | 0.774 | 2.04 | 0.101 | 0.393 | 0.131 | 0.265 | 0.0387 | 0.184 | 0.236 | 0.768 | 0.253 | 0.938 | 0.402 | 1.46 | 0.0406 | 0.166 |  | 
CC(=O)N1CCN(CCNC(=O)n2cc(-c3ccncc3)c(-c3cc(O)cc(Cl)c3)n2)CC1 | 5.93 | 24.3 | 12.4 | 25.4 | 10.1 | 26.3 | 1.85 | 4.61 | 15.1 | 38.7 | 8.95 | 22.5 | 22.1 | > 100 | 10.2 | 23.3 |  |  | 24.6 | > 100
CCC[CH2][Sn]([CH2]CCC)([S]C#N)[S]C#N | 1.79 | 3.5 | 1.77 | 3.39 | 2.14 | 4.96 | 0.965 | 2.4 | 3.78 | 11.9 | 1.61 | 2.98 |  |  | 1.2 | 2.49 | 0.753 | 2.27 | 1.36 | 2.99
Cc1cc(N(CCOS(C)(=O)=O)CCOS(C)(=O)=O)ccc1C(=O)O | 37.1 | > 100 | > 100 | > 100 | 87.6 | > 100 |  |  | > 100 | > 100 | > 100 | > 100 | > 100 | > 100 | > 100 | > 100 | > 100 | > 100 | > 100 | > 100
CCCCCC(=O)Nc1nc2nc[nH]c2c(=O)[nH]1 |  | > 100 |  | > 100 |  | > 100 |  | > 100 |  | > 100 |  | > 100 |  |  |  | > 100 |  | > 100 |  | > 100

Source: PubChem BioAssay (NCI)
